{"source": "patent US20050163873A1", "about": "“Methods and formulations for treating glaucoma” (priority 2004, published 2005)", "origin": "cited, not measured here", "key": {"[1]": {"system": "inducible nitric oxide synthase (iNOS)"}, "[2]": {"system": "retina", "settings": "guinea pig, in vivo"}, "[3]": {"system": "primary cultures of cerebellar neurons"}, "[4]": {"system": "tumor necrosis factor-alpha (TNF-α) and nitric oxide (NO)"}, "[5]": {"target": "HIV-1 enzyme integrase (Human immunodeficiency virus type 1 group M subtype B, UniProt P04585)"}, "[6]": {"system": "DNA topoisomerase II"}, "[7]": {"system": "cultured neurons"}, "[8]": {"system": "heme oxygenase 1", "settings": "neuronal cell cultures"}, "[9]": {"system": "diabetic rats"}, "[10]": {"system": "goldfish retinal explants", "settings": "post-crush goldfish retinal explants, in the presence of fetal calf serum"}, "[11]": {"system": "hippocampal CA1 neurons", "settings": "central infusion after forebrain ischemia, gerbil"}, "[12]": {"system": "cultured cortical cells"}, "[13]": {"settings": "folic acid 400 μg associated with vitamin B6 and B12"}, "[14]": {"system": "cortical cell cultures"}, "[15]": {"system": "nitric oxide and tumor necrosis factor alpha"}, "[16]": {"system": "rats"}, "[17]": {"system": "rabbits"}, "[18]": {"system": "cultured retinal ganglion cells"}, "[19]": {"system": "diabetic rats", "remark": "listed apart in the source"}, "[20]": {"system": "rabbits", "remark": "listed apart in the source"}, "[21]": {"system": "human Tenon's capsule fibroblast", "settings": "human Tenon's capsule fibroblasts"}, "[22]": {"system": "cultured neuronal cells and astrocytes", "settings": "pretreatment of cultured neuronal cells and astrocytes"}, "[23]": {"system": "cultured neurons from embryonic mouse cortex and striatum"}, "[24]": {"system": "patients with glaucoma"}}}
{"smiles": "N[C@H]1C(O)O[C@H](CO)[C@@H](O)[C@@H]1O", "note": "(stereo partly shown) [glucosamine]", "values": [{"measurement": "inducible nitric oxide synthase (iNOS) inhibition", "setting": "[1]", "value": "inhibits"}]}
{"smiles": "C[N+](C)(C)CC(O)CC(=O)[O-]", "note": "(stereo not shown) [Carnitine]", "values": [{"measurement": "retinal injury following ischemia-reperfusion injury", "setting": "[2]", "value": "prevent"}, {"measurement": "glutamate neurotoxicity", "setting": "[3]", "value": "prevents"}]}
{"smiles": "COc1cc(C[C@H]2C(=O)OC[C@@H]2Cc2ccc(OC)c(OC)c2)ccc1O", "note": "[Arctigenin]", "values": [{"measurement": "tumor necrosis factor-alpha (TNF-α) and nitric oxide (NO) production", "setting": "[4]", "value": "inhibit"}, {"measurement": "HIV-1 enzyme integrase inhibition", "setting": "[5]", "value": "inhibit"}, {"measurement": "DNA topoisomerase II inhibition", "setting": "[6]", "value": "inhibitor"}, {"measurement": "glutamate toxicity", "setting": "[7]", "value": "protect"}]}
{"smiles": "Oc1ccc(C=Cc2cc(O)cc(O)c2)cc1", "note": "[resveratrol, Resveratrol]", "values": [{"measurement": "heme oxygenase 1", "setting": "[8]", "value": "induces"}]}
{"smiles": "NCCS(=O)(=O)O", "note": "[Taurine]", "values": [{"measurement": "ATPase activity", "setting": "[9]", "value": "preserves"}, {"measurement": "lipid peroxidation", "setting": "[9]", "value": "significantly decreases"}, {"measurement": "neuritic outgrowth", "setting": "[10]", "value": "increased length and density of neurites"}]}
{"smiles": "CC(C)=CCC[C@](C)(O[C@@H]1O[C@H](CO[C@@H]2O[C@H](CO)[C@@H](O)[C@H](O)[C@H]2O)[C@@H](O)[C@H](O)[C@H]1O)[C@H]1CC[C@]2(C)[C@@H]1[C@H](O)C[C@@H]1[C@@]3(C)CC[C@H](O[C@@H]4O[C@H](CO)[C@@H](O)[C@H](O)[C@H]4O[C@@H]4O[C@H](CO)[C@@H](O)[C@H](O)[C@H]4O)C(C)(C)[C@@H]3CC[C@]12C", "note": "[Ginsenoside Rb1, ginsenoside Rb1]", "values": [{"measurement": "protection of hippocampal CA1 neurons against lethal ischemic damage", "setting": "[11]", "value": "protects"}, {"measurement": "neuroprotective effects on cultured cortical cells", "setting": "[12]", "value": "significant neuroprotective effects"}]}
{"smiles": "Nc1nc2ncc(CNc3ccc(C(=O)N[C@@H](CCC(=O)O)C(=O)O)cc3)nc2c(=O)[nH]1", "note": "[folic acid]", "values": [{"measurement": "reduction of homocysteine levels", "setting": "[13]", "value": 30, "unit": "%"}]}
{"smiles": "O=c1c(O)c(-c2ccc(O)c(O)c2)oc2cc(O)cc(O)c12", "note": "[Quercetin]", "values": [{"measurement": "oxidative injury", "setting": "[14]", "value": "neuroprotective"}, {"measurement": "release of nitric oxide and tumor necrosis factor alpha", "setting": "[15]", "value": "inhibits"}, {"measurement": "progression of selenite-induced cataract", "setting": "[16]", "value": "slow the progression"}]}
{"smiles": "C=CCSSC[C@H](N)C(=O)O", "note": "[S-Allylmercaptocysteine]", "values": [{"measurement": "IOP", "setting": "[17]", "value": "lower IOP"}]}
{"smiles": "C/C1=C2/[N-][C@H]([C@H](CC(N)=O)[C@@]2(C)CCC(=O)NC[C@@H](C)OP(=O)([O-])O[C@H]2[C@@H](O)[C@@H](n3cnc4cc(C)c(C)cc43)O[C@@H]2CO)[C@]2(C)N=C(/C(C)=C3N=C(/C=C4N=C1[C@@H](CCC(N)=O)C\\4(C)C)[C@@H](CCC(N)=O)[C@]\\3(C)CC(N)=O)[C@@H](CCC(N)=O)[C@]2(C)CC(N)=O.[CH3-].[Co+3]", "note": "[Methylcobalamin]", "values": [{"measurement": "glutamate-induced neurotoxicity", "setting": "[18]", "value": "protects"}]}
{"smiles": "O=C(O)CCCCC1CCSS1", "note": "(stereo not drawn) [alpha-lipoic acid, Alpha-lipoic acid]", "values": [{"measurement": "amount of leukostasis", "setting": "[19]", "value": "normalized"}]}
{"smiles": "CC(C)=CCC[C@](C)(O)[C@H]1CC[C@]2(C)[C@@H]1[C@H](O)C[C@@H]1[C@@]3(C)CC[C@H](O[C@@H]4O[C@H](CO)[C@@H](O)[C@H](O)[C@H]4O[C@@H]4O[C@H](CO)[C@@H](O)[C@H](O)[C@H]4O)C(C)(C)[C@@H]3CC[C@]12C", "note": "[Ginsenoside Rg3]", "values": [{"measurement": "neuroprotective effects on cultured cortical cells", "setting": "[12]", "value": "significant neuroprotective effects"}]}
{"smiles": "Cc1c(C)c2c(c(C)c1O)CC[C@@](C)(CCC[C@H](C)CCC[C@H](C)CCCC(C)C)O2", "note": "[D-alpha-tocopherol]", "values": [{"measurement": "amount of leukostasis", "setting": "[19]", "value": "prevented the increases in leukostasis"}, {"measurement": "retinal blood flow", "setting": "[19]", "value": "prevented"}, {"measurement": "results of filtering surgery", "setting": "[20]", "value": "improve the results"}, {"measurement": "fibroblast proliferation", "setting": "[21]", "value": "inhibit"}]}
{"smiles": "COC1=C(OC)C(=O)C(C/C=C(\\C)CC/C=C(\\C)CC/C=C(\\C)CC/C=C(\\C)CC/C=C(\\C)CC/C=C(\\C)CC/C=C(\\C)CC/C=C(\\C)CC/C=C(\\C)CCC=C(C)C)=C(C)C1=O", "note": "[coenzyme Q10]", "values": [{"measurement": "cell death due to glutamate neurotoxicity", "setting": "[22]", "value": "inhibited cell death"}]}
{"smiles": "CC(=O)N[C@@H](CS)C(=O)O", "note": "[N-acetyl-L-cysteine]", "values": [{"measurement": "neuronal cell survival rate", "setting": "[23]", "value": "increased"}]}
{"smiles": "C[N+](C)(C)CCOP(=O)(O)OP(=O)([O-])OC[C@H]1O[C@@H](n2ccc(N)nc2=O)[C@H](O)[C@@H]1O", "note": "[citicoline, Citicoline]", "values": [{"measurement": "visual evoked potential and pattern electroretinography (ERG) parameters", "setting": "[24]", "value": "significant (P<0.01) improvement"}]}
